By IC50 is commonly meant the midpoint of a concentration-inhibition curve. The term EC50 denotes the midpoint of the concentration-response curve. In general, pIC50 refers to the IC50 on a negative log10 scale, so that one unit is a factor of ten. A lower pIC50 goes with a large IC50. A word on the pEC50: it is the EC50 on a negative log10 scale, so that one unit is a factor of ten.

Numbered stars: 1 amine (or outer) side, 2 acyl side, 3 side chain; on linkers, the order of the positions; unused ones are H or OH. Square brackets hold non-standard residues; d marks the D form. Peptide text beside a SMILES is read from it. * marks the point of attachment. Phenylacetyl(4-OSO3H) = O=C(Cc1ccc(OS(=O)(=O)O)cc1)*; sY = N[C@@H](Cc1ccc(OS(=O)(=O)O)cc1)C(=O)O; C18 diacid = O=C(O)CCCCCCCCCCCCCCCCC(=O)*; γGlu = O=C(O)[C@H](CCC(=O)[*:2])N[*:1]; 1Nal = N[C@@H](Cc1cccc2ccccc12)C(=O)O; Glutaryl = O=C(CCCC(=O)[*:2])[*:1]; NMeF = CN[C@@H](Cc1ccccc1)C(=O)O; NMeD = CN[C@@H](CC(=O)O)C(=O)O; dNMeD = CN[C@H](CC(=O)O)C(=O)O; Nle = CCCC[C@H](N)C(=O)O; X1 = O=C(Cc1ccc(O)cc1)*; Dap = NC[C@H](N)C(=O)O; AEEA = NCCOCCOCC(=O)O

This is an account of results in ChEMBL document CHEMBL4368907 (J Med Chem, 2019).

Experiment [1] addresses T1, Cholecystokinin receptor type A (Homo sapiens, UniProt P32238).
T1 sequence (P32238 whole entry): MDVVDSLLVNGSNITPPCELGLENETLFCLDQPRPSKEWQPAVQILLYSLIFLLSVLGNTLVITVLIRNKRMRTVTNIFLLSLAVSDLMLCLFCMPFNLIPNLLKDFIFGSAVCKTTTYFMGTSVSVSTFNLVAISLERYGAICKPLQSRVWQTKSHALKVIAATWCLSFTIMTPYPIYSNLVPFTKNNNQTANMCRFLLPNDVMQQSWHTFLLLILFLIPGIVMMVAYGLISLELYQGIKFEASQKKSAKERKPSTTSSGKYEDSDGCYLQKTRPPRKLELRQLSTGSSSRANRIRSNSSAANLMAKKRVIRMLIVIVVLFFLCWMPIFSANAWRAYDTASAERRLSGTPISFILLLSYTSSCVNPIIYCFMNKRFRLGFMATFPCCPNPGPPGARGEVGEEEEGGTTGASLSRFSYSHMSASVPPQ
In words: Displacement of [125I]-CCK-8 from human CCK1R expressed in human 1321N1 cell membranes after 2 hrs by SPA assay. Background: Displacement assays read how much labelled ligand stays bound in the presence of the test substance.

Experiment [2] addresses T2, Gastrin/cholecystokinin type B receptor (Homo sapiens, UniProt P32239).
T2 sequence (P32239 whole entry): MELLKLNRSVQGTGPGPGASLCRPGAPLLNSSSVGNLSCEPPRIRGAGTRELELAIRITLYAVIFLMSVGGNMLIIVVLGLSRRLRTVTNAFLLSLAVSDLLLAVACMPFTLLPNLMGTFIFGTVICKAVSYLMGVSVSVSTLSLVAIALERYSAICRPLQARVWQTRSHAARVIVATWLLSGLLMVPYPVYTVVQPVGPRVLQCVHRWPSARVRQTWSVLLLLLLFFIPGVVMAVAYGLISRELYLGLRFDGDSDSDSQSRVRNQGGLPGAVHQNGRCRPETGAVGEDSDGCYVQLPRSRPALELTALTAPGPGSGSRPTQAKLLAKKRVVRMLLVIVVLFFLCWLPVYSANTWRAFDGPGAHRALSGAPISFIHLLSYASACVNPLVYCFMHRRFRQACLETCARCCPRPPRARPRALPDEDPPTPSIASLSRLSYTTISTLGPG
The experiment in a line: Displacement of [125I]-CCK-8 from human CCK2R expressed in human 1321N1 cell membranes after 2 hrs by SPA assay.

For experiment [3], the target named is T1, Cholecystokinin receptor type A. In words: Agonist activity at human CCK1R expressed in human 1321N1 cells assessed as IP1 accumulation after 1 hr by HTRF assay. Type of experiment: functional, cell-based. (TR-FRET usually uses a lanthanide donor and a delayed reading to cut background.)
The target in experiment [4] is T2, Gastrin/cholecystokinin type B receptor. The experiment in a line: Agonist activity at human CCK2R expressed in human 1321N1 cells assessed as IP1 accumulation after 1 hr by HTRF assay. The experiment is classed as functional, cell-based.

Consider `CCCC[C@H](NC(=O)[C@H](Cc1c[nH]c2ccccc12)NC(=O)CNC(=O)[C@H](CCC(=O)O)NC(=O)[C@H](Cc1ccc(OS(=O)(=O)O)cc1)NC(=O)[C@H](CC(=O)O)NC(=O)COCCOCCNC(=O)COCCOCCNC(=O)CC[C@H](NC(=O)CCCCCCCCCCCCCCCCC(=O)O)C(=O)O)C(=O)N[C@@H](CC(=O)O)C(=O)N[C@@H](Cc1ccccc1)C(N)=O` ({C18 diacid-γGlu-AEEA-AEEA}-D[sY]EGW[Nle]DF-NH2), for which the IC50 in experiment [1] is 1.26 nM; in experiment [2], 0.158 nM. For the same molecule, the concentration giving a half-maximal response (EC50) was 0.166 nM in experiment [3] and 0.295 nM in experiment [4].
`CCCC[C@H](NC(=O)[C@H](Cc1c[nH]c2ccccc12)NC(=O)CNC(=O)[C@H](CC(C)C)NC(=O)[C@H](Cc1c[nH]c2ccccc12)NC(=O)[C@H](CC(=O)O)NC(=O)COCCOCCNC(=O)COCCOCCNC(=O)CC[C@H](NC(=O)CCCCCCCCCCCCCCCCC(=O)O)C(=O)O)C(=O)N(C)[C@@H](CC(=O)O)C(=O)N(C)[C@@H](Cc1ccccc1)C(N)=O` ({C18 diacid-γGlu-AEEA-AEEA}-DWLGW[Nle][NMeD][NMeF]-NH2): the pIC50 in experiment [1] is 8.57; in experiment [2], 5.13. Besides, the pEC50 in experiment [3] is reported as 9.67; in experiment [4] it was < 6.
For `CCCC[C@H](NC(=O)[C@H](CNC(=O)CCCC(=O)O)NC(=O)[C@H](CC(=O)O)NC(=O)COCCOCCNC(=O)COCCOCCNC(=O)CC[C@H](NC(=O)CCCCCCCCCCCCCCCCC(=O)O)C(=O)O)C(=O)NCC(=O)N[C@@H](Cc1c[nH]c2ccccc12)C(=O)N[C@@H](CCCC)C(=O)N[C@@H](CC(=O)O)C(=O)N[C@@H](Cc1ccccc1)C(N)=O` ({C18 diacid-γGlu-AEEA-AEEA}-D[Dap](Glutaryl)[Nle]GW[Nle]DF-NH2), the figures for the half-maximal inhibitory concentration (IC50) in experiment [1] and in experiment [2] were 832 nM and 5.75 nM, respectively. Also, the EC50 is 229 nM in experiment [3] and 0.38 nM in experiment [4].
As to `CCCC[C@H](NC(=O)Cc1ccc(O)cc1)C(=O)NCC(=O)N[C@@H](Cc1c[nH]c2ccccc12)C(=O)N[C@@H](CCCC)C(=O)N(C)[C@@H](CC(=O)O)C(=O)N[C@@H](Cc1ccccc1)C(N)=O` (X1-[Nle]GW[Nle][NMeD]F-NH2), the IC50 in experiment [1] was 15.5 nM; in experiment [2], 3020 nM. The EC50 in experiment [3] was 9.12 nM; in experiment [4] it was 195 nM.
The matching figures for `CCCC[C@H](NC(=O)[C@H](Cc1ccc(OS(=O)(=O)O)cc1)NC(=O)[C@H](CC(=O)O)NC(=O)COCCOCCNC(=O)COCCOCCNC(=O)CC[C@H](NC(=O)CCCCCCCCCCCCCCCCC(=O)O)C(=O)O)C(=O)NCC(=O)N[C@@H](Cc1c[nH]c2ccccc12)C(=O)N[C@@H](CCCC)C(=O)N[C@@H](CC(=O)O)C(=O)N[C@@H](Cc1cccc2ccccc12)C(N)=O` ({C18 diacid-γGlu-AEEA-AEEA}-D[sY][Nle]GW[Nle]D[1Nal]-NH2): 0.0759 nM, 0.0933 nM, 0.162 nM and 0.407 nM.
The corresponding values for `CCCC[C@H](NC(=O)[C@H](Cc1ccc(OS(=O)(=O)O)cc1)NC(=O)[C@H](CC(=O)O)NC(=O)COCCOCCNC(=O)COCCOCCNC(=O)CC[C@H](NC(=O)CCCCCCCCCCCCCCCCC(=O)O)C(=O)O)C(=O)NCC(=O)N[C@@H](Cc1c[nH]c2ccccc12)C(=O)N[C@H](C(=O)N[C@@H](CC(=O)O)C(=O)N[C@@H](Cc1ccccc1)C(N)=O)[C@@H](C)CC` ({C18 diacid-γGlu-AEEA-AEEA}-D[sY][Nle]GWIDF-NH2) are 0.794 nM, 2.14 nM, 0.11 nM and 0.631 nM.
With `CCCC[C@H](NC(=O)[C@H](Cc1c[nH]c2ccccc12)NC(=O)CNC(=O)[C@H](CC(C)C)NC(=O)[C@@H](NC(=O)[C@H](CC(=O)O)NC(=O)COCCOCCNC(=O)COCCOCCNC(=O)CC[C@H](NC(=O)CCCCCCCCCCCCCCCCC(=O)O)C(=O)O)[C@@H](C)CC)C(=O)N(C)[C@@H](CC(=O)O)C(=O)N(C)[C@@H](Cc1ccccc1)C(N)=O` ({C18 diacid-γGlu-AEEA-AEEA}-DILGW[Nle][NMeD][NMeF]-NH2), the pIC50 was 8.37 in experiment [1] and < 5 in experiment [2]. Further, the negative-log EC50 (pEC50) in experiment [3] is recorded as 9.41; in experiment [4], < 6.
With `CCCC[C@H](NC(=O)[C@H](Cc1c[nH]c2ccccc12)NC(=O)[C@H](CCC(=O)O)NC(=O)[C@H](CCCC)NC(=O)[C@H](Cc1ccc(OS(=O)(=O)O)cc1)NC(=O)[C@H](CC(=O)O)NC(=O)COCCOCCNC(=O)COCCOCCNC(=O)CC[C@H](NC(=O)CCCCCCCCCCCCCCCCC(=O)O)C(=O)O)C(=O)N[C@@H](CC(=O)O)C(=O)N[C@@H](Cc1ccccc1)C(N)=O` ({C18 diacid-γGlu-AEEA-AEEA}-D[sY][Nle]EW[Nle]DF-NH2), the results for the 50% inhibitory concentration (IC50) in experiment [1] and in experiment [2] were 3980 nM and 0.151 nM, respectively. In addition, the EC50 in experiment [3] is > 1000 nM; in experiment [4], 0.437 nM.
The corresponding values for `CCCC[C@H](NC(=O)[C@H](Cc1ccc(OS(=O)(=O)O)cc1)NC(=O)[C@H](CC(=O)O)NC(=O)COCCOCCNC(=O)COCCOCCNC(=O)CC[C@H](NC(=O)CCCCCCCCCCCCCCCCC(=O)O)C(=O)O)C(=O)NCC(=O)N[C@@H](Cc1c[nH]c2ccccc12)C(=O)N[C@@H](CCC(N)=O)C(=O)N[C@@H](CC(=O)O)C(=O)N[C@@H](Cc1ccccc1)C(N)=O` ({C18 diacid-γGlu-AEEA-AEEA}-D[sY][Nle]GWQDF-NH2) are 0.933 nM, 2.04 nM, 0.162 nM and 0.417 nM.
The matching figures for `CCCC[C@H](NC(=O)[C@H](Cc1c[nH]c2ccccc12)NC(=O)CNC(=O)[C@H](CC(C)C)NC(=O)[C@H](Cc1ccc(OS(=O)(=O)O)cc1)NC(=O)[C@H](CC(=O)O)NC(=O)COCCOCCNC(=O)COCCOCCNC(=O)CC[C@H](NC(=O)CCCCCCCCCCCCCCCCC(=O)O)C(=O)O)C(=O)N[C@@H](CC(=O)O)C(=O)N[C@@H](Cc1ccccc1)C(N)=O`: 0.275 nM, 0.166 nM, 0.129 nM and 0.501 nM.
The matching figures for `CCCC[C@H](NC(=O)Cc1ccc(OS(=O)(=O)O)cc1)C(=O)NCC(=O)N[C@@H](Cc1c[nH]c2ccccc12)C(=O)N[C@@H](CCCC)C(=O)N(C)[C@H](CC(=O)O)C(=O)N[C@@H](Cc1ccccc1)C(N)=O` ({Phenylacetyl(4-OSO3H)}-[Nle]GW[Nle][dNMeD]F-NH2): 0.0447 nM, 7410 nM, 0.0251 nM and > 1000 nM.
For `CCCC[C@H](NC(=O)[C@H](Cc1ccc(OS(=O)(=O)O)cc1)NC(=O)[C@H](CC(=O)O)NC(=O)COCCOCCNC(=O)COCCOCCNC(=O)CC[C@H](NC(=O)CCCCCCCCCCCCCCCCC(=O)O)C(=O)O)C(=O)NCC(=O)N[C@@H](Cc1c[nH]c2ccccc12)C(=O)N[C@@H](CCCC)C(=O)N[C@@H](CC(=O)O)C(=O)N[C@@H](Cc1c[nH]c2ccccc12)C(N)=O` ({C18 diacid-γGlu-AEEA-AEEA}-D[sY][Nle]GW[Nle]DW-NH2), the half-maximal inhibitory concentration (IC50) is 2.24 nM in experiment [1] and 0.132 nM in experiment [2]. The results for the 50% effective concentration (EC50) in experiment [3] and in experiment [4] were 0.324 nM and 0.417 nM, respectively.
